US20220251085A1, “CYSTEINE BINDING COMPOSITIONS AND METHODS OF USE THEREOF” (University of Virginia Patent Foundation, priority 2019, published 2022)
Blank lines part the entries; values can stand above or below the compound they belong to.

Tests used:
[1] = target: T1, human eEF-Sec (Uniprot ID P57772) (Homo sapiens, UniProt P57772); experiment: Competition assay: purine ligands block AHL-Pu-1 probe labeling of eEF-Sec; format: cell-based; details: for block of AHL-Pu-1 probe labeling of eEF-Sec (FIG. 10E) / block of AHL-Pu-1 probe labeling of eEF-Sec (FIG. 10D): ligand 4 hr, AHL-Pu-1 25 μM 1 hr; for block of AHL-Pu-1 probe labeling of eEF-Sec (FIG. 10E): 0.05 to 25 μM; for block of AHL-Pu-1 probe labeling of eEF-Sec (FIG. 10E) / block of AHL-Pu-1 probe labeling of eEF-Sec (FIG. 10D) / block of AHL-Pu-1 probe labeling of eEF-Sec: live cells; for block of AHL-Pu-1 probe labeling of eEF-Sec (FIG. 10D): 0.5 to 25 μM; for inhibition of eEF-Sec probe labeling: 10 μM ligand; for block of AHL-Pu-1 probe labeling of eEF-Sec: ligand 10 μM, AHL-Pu-1 25 μM
T1 construct: FLAG; expressed in transfected cells; host or cells: HEK293T
T1 sequence (P57772 1-596): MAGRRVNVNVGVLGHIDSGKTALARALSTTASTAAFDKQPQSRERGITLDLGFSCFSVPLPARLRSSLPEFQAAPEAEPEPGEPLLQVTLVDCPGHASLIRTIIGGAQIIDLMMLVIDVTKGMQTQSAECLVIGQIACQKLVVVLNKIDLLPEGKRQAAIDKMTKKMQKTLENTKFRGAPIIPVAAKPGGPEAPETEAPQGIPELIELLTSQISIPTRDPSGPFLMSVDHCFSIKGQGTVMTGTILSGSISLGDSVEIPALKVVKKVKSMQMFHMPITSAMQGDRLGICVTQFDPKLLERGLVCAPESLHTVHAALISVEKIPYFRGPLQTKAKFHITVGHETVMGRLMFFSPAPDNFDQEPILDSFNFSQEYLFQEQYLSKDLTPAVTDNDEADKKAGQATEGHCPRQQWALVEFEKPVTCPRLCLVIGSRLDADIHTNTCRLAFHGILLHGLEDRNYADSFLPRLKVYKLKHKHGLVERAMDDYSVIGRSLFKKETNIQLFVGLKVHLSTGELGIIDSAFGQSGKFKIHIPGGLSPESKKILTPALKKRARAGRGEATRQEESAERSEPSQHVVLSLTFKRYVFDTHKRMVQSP
Experimental: FIG. 8 is a schematic diagram showing the workflow of a fluorescent gel-based competition assay using an activity-based probe (ABP) of the presently disclosed subject matter and a competitive inhibitor.
Methods: HEK293T cells were grown at 37° C. in 5% CO2 until 40% confluent. Recombinant human eEF-Sec (Uniprot ID P57772) was expressed by transient transfection for 48 hours. […] Lysates were spun at 100,000×g for 45 minutes. […] Purine probe modified proteins were conjugated to rhodamine-azide by CuAAC, subjected to SDS-PAGE analysis, and detected by in-gel fluorescence scanning. Comparison of non-transfected (Mock) and transfected proteomes was used to identify the recombinant eEF-Sec purine probe-labeled band. […] Reduction in fluorescent signals from purine probe labeling was indicative of Pi ligand inhibitory activity. Mut represents eEF-Sec mutant where cysteine residue 442 is mutated to alanine (C442A).

[2] = HPLC assay for profiling solution reactivity and stability of purine adduct fragments; format: physicochemical; details: for preference between nucleophiles: butanethiol versus p-cresol
Experimental: HPLC assay for profiling solution reactivity and stability of purine adduct fragments: The following reagents were prepared and stored on ice prior to use. 0.1 M solution of caffeine in acetonitrile, 1.0 M solution of amino acid mimetic (butanethiol, n-butylamine, p-cresol, propionamide and butyric acid), tetramethylguanidine (TMG), 1 M HOAc in ACN and 10 mM solution of purine fragment (e.g., one of the purine adducts shown in Scheme 8, above) in ACN mixture. 500 μL of fragment solution (i.e. purified Pa-1 through Pa-6) were transferred to a dram vial on ice. To the mixture, 5.5 μL of TMG and 5.5 μL of respective amino acid mimetic were added and solutions were stirred on ice for 6 h. To monitor reactivity, 50 μL aliquots were removed at indicated time points and quenched with 10 μL of a 1:1 mixture of caffeine and HOAc. Samples were injected (1 μL) and analyzed by reverse-phase HPLC on a Shimadzu 1100 Series spectrometer with UV detection at 254 nm. Reaction progress was evaluated by monitoring consumption of starting material (purine fragment) normalized to caffeine standard. Chromatographic separation was performed using a Phenomenex Kinetex C18 column (2.6 μm, 50×4.6 mm). Mobile phases A and B were composed of H2O+0.1% HOAc and ACN+0.1% HOAc, respectively. […] All purine fragment peak AUCs used for calculations were normalized to caffeine standard AUCs at respective time points to account for run-to-run variations by HPLC. The amount of purine fragment consumed (% starting material) was plotted as a function of time.

[3] = HPLC assay for profiling solution reactivity and stability of purine inhibitors; format: physicochemical; details: N7 versus N9 tautomer, on ice 6 h
Experimental: HPLC assay for profiling solution reactivity and stability of purine inhibitors—The following reagents were prepared and stored on ice prior to use. 0.1 M solution of caffeine in acetonitrile, 1.0 M solution of amino acid mimetic (butanethiol), tetramethylguanidine (TMG), 1 M HOAc in ACN and 10 mM solution of purine fragment in ACN mixture. 500 μL of fragment solution were transferred to a dram vial on ice. To the mixture, 5.5 μL of TMG and 5.5 μL of respective amino acid mimetic were added and solutions were stirred on ice for 6 h. To monitor reactivity, 50 μL aliquots were removed at indicated time points and quenched with 10 μL of a 1:1 mixture of caffeine and HOAc. Samples were injected (1 μL) and analyzed by reverse-phase HPLC on a Shimadzu 1100 Series spectrometer (Shimadzu Corporation, Kyoto, Japan) with UV detection at 254 nm. Reaction progress was evaluated by monitoring consumption of starting material (purine fragment) normalized to caffeine standard. Chromatographic separation was performed using a Phenomenex Kinetex C18 column (2.6 μm, 50×4.6 mm; Phenomenex, Torrance, Calif., United States of America). Mobile phases A and B were composed of H2O+0.1% HOAc and ACN+0.1% HOAc, respectively. […] All purine fragment peak AUCs used for calculations were normalized to caffeine standard AUCs at respective time points to account for run-to-run variations by HPLC. […]

block of AHL-Pu-1 probe labeling of eEF-Sec (FIG. 10E) [1]: in a concentration dependent manner | block of AHL-Pu-1 probe labeling of eEF-Sec (FIG. 10D) [1]: in a concentration dependent manner
SMILES: Clc1nc(Cl)c2c(ncn2Cc2ccccc2)n1 [Pi-1, 2,6-dichloro-7-benzyl-7H-purine]

reactivity of 2-halogen, 6-substituted versus 6-halogen, 2-substituted ([2]; Pa-4 versus Pa-3, butanethiol): higher reactivity | reactivity with nucleophiles ([2]; on ice 6 h): mild reactivity
SMILES: C#CCn1cnc2c(SCCCC)nc(Cl)nc21 [Pa-4, 6-(butylthio)-2-chloro-9-(prop-2-yn-1-yl)-9H-purine]
reactivity against nucleophiles, N9 versus N7 tautomer ([2]; Pa-4 versus Pa-1, butanethiol): appears to be more reactive against nucleophiles

inhibition of eEF-Sec probe labeling [1]: greater than 50% | block of AHL-Pu-1 probe labeling of eEF-Sec (FIG. 10E) [1]: in a concentration dependent manner | block of AHL-Pu-1 probe labeling of eEF-Sec (FIG. 10D) [1]: in a concentration dependent manner
SMILES: O=[N+]([O-])c1ccc(Cn2cnc3nc(Cl)nc(Cl)c32)cc1 [Pi-5, 2,6-Dichloro-7-(4-nitrobenzyl)-7H-purine]
block of AHL-Pu-1 probe labeling of eEF-Sec [1]: block AHL-Pu-1 probe labeling (25 μM) in a time dependent and concentration dependent manner

reactivity with nucleophiles ([2]; on ice 6 h): mild reactivity
SMILES: C#CCn1cnc2c(SCCCC)nc(F)nc21 [Pa-6, 6-(butylthio)-2-fluoro-9-(prop-2-yn-1-yl)-9H-purine]
preference between nucleophiles [2]: equivalent reactivity against butanethiol and p-cresol

block of AHL-Pu-1 probe labeling of eEF-Sec (FIG. 10D) [1]: in a concentration dependent manner
SMILES: O=S(=O)(N1CCOCC1)n1cnc2c(Cl)nc(Cl)nc21 [Pi-8, 4-((2,6-Dichloro-9H-purin-9-yl)sulfonyl)morpholine]
block of AHL-Pu-1 probe labeling of eEF-Sec [1]: block AHL-Pu-1 probe labeling (25 μM) in a time dependent and concentration dependent manner

preference between nucleophiles [2]: preference for butanethiol | reactivity with nucleophiles ([2]; on ice 6 h): mild reactivity
SMILES: C#CCn1cnc2c(Cl)nc(SCCCC)nc21 [Pa-3, 2-(butylthio)-6-chloro-9-(prop-2-yn-1-yl)-9H-purine]

reactivity for butanethiol [3]: essentially equivalent reactivity
SMILES: O=S(=O)(c1ccc(F)cc1)n1cnc2nc(Cl)nc(Cl)c21 [Pi-13, 2,6-dichloro-7-((4-fluorophenyl)sulfonyl)-7H-purine]

inhibition of eEF-Sec probe labeling [1]: loses all apparent activity
SMILES: O=[N+]([O-])c1ccc(Cn2cnc3c(Cl)nc(Cl)nc32)cc1 [Pi-6, 2,6-Dichloro-9-(4-nitrobenzyl)-9H-purine]

reactivity with butanethiol or p-cresol ([2]; on ice 6 h): little reactivity
SMILES: C#CCn1cnc2nc(Cl)nc(SCCCC)c21 [Pa-1, 6-(Butylthio)-2-chloro-7-(prop-2-yn-1-yl)-7H-purine]

reactivity for butanethiol [3]: essentially equivalent reactivity
SMILES: O=S(=O)(c1ccc(F)cc1)n1cnc2c(Cl)nc(Cl)nc21 [Pi-14, 2,6-dichloro-9-((4-fluorophenyl)sulfonyl)-9H-purine]
